Assay results from US20260042731A1, “(2,4-DICHLOROPHENOXY)ACETIC ACID ANALOGS” (CORTEVA AGRISCIENCE LLC, priority 2022, published 2026).
Read-outs that look alike come from different tables or passages of the source.

What was measured:
[1] = test system: Amaranthus rudis (AMATA), tall water hemp; experiment: Postemergence herbicide evaluation, growth of Amaranthus rudis (AMATA); format: in vivo; conditions: Amaranthus tuberculatus, post-emergence, percent reduction in plant size vs untreated control, read-out: Ave. AMATA; for pest or weed control at 280 g/ha: 280 g ae/ha; for pest or weed control at 560 g/ha: 560 g ae/ha
[2] = test system: glyphosate resistant Conyza canadensis (L.) (ERICA), horseweed; experiment: Postemergence herbicide evaluation, growth of Conyza canadensis (ERICA); format: in vivo; conditions: Erigeron canadensis, post-emergence, percent reduction in plant size vs untreated control, read-out: Ave. ERICA; for pest or weed control at 280 g/ha: 280 g ae/ha; for pest or weed control at 560 g/ha: 560 g ae/ha
[3] = test system: weeds ABUTH, AMATA, AMBEL, CHEAL, ERICA; experiment: Postemergence herbicide evaluation, overall average % weed control across ABUTH, AMATA, AMBEL, CHEAL and ERICA; format: in vivo; conditions: post-emergence, average over five weeds, read-out: Overall Ave % Weed Control; for pest or weed control at 280 g/ha: 280 g ae/ha; for pest or weed control at 560 g/ha: 560 g ae/ha
[4] = test system: Chenopodium album (CHEAL), common lambsquarters; experiment: Postemergence herbicide evaluation, growth of Chenopodium album (CHEAL); format: in vivo; conditions: Chenopodium album, post-emergence, percent reduction in plant size vs untreated control, read-out: Ave. CHEAL; for pest or weed control at 280 g/ha: 280 g ae/ha; for pest or weed control at 560 g/ha: 560 g ae/ha
[5] = Volatility of compounds measured by thermogravimetric analysis (TGA); format: physicochemical
[6] = test system: Abutilon theophrasti (ABUTH), velvetleaf; experiment: Postemergence herbicide evaluation, growth of Abutilon theophrasti (ABUTH); format: in vivo; conditions: Abutilon theophrasti, post-emergence, percent reduction in plant size vs untreated control, read-out: AVE. ABUTH; for pest or weed control at 280 g/ha: 280 g ae/ha; for pest or weed control at 560 g/ha: 560 g ae/ha
[7] = test system: Ambrosia artemisiifolia (AMBEL), common ragweed; experiment: Postemergence herbicide evaluation, growth of Ambrosia artemisiifolia (AMBEL); format: in vivo; conditions: Ambrosia artemisiifolia, post-emergence, percent reduction in plant size vs untreated control, read-out: AVE. AMBEL; for pest or weed control at 280 g/ha: 280 g ae/ha; for pest or weed control at 560 g/ha: 560 g ae/ha

| Structure (SMILES) | pest or weed control at 280 g/ha ([1]; 168 h, 7 DAA) | pest or weed control at 560 g/ha ([1]; 168 h, 7 DAA) | pest or weed control at 280 g/ha ([1]; 336 h, 14 DAA) | pest or weed control at 560 g/ha ([1]; 336 h, 14 DAA) | pest or weed control at 280 g/ha ([1]; 504 h, 21 DAA) | pest or weed control at 280 g/ha ([2]; 168 h, 7 DAA) | pest or weed control at 560 g/ha ([2]; 168 h, 7 DAA) | pest or weed control at 280 g/ha ([2]; 336 h, 14 DAA) | pest or weed control at 560 g/ha ([2]; 336 h, 14 DAA) | pest or weed control at 280 g/ha ([2]; 504 h, 21 DAA) | pest or weed control at 560 g/ha ([2]; 504 h, 21 DAA) | pest or weed control at 280 g/ha ([3]; 168 h, 7 DAA) | pest or weed control at 560 g/ha ([3]; 168 h, 7 DAA) | pest or weed control at 280 g/ha ([3]; 336 h, 14 DAA) | pest or weed control at 560 g/ha ([3]; 336 h, 14 DAA) | pest or weed control at 280 g/ha ([3]; 504 h, 21 DAA) | pest or weed control at 560 g/ha ([3]; 504 h, 21 DAA) | pest or weed control at 280 g/ha ([4]; 168 h, 7 DAA) | pest or weed control at 560 g/ha ([4]; 168 h, 7 DAA) | pest or weed control at 280 g/ha ([4]; 336 h, 14 DAA) | other results |
| --- | --- | --- | --- | --- | --- | --- | --- | --- | --- | --- | --- | --- | --- | --- | --- | --- | --- | --- | --- | --- | --- |
| COc1ccc(CONC(=O)COc2ccc(Cl)cc2Cl)cc1 [Compound D20] | 72.5% | 77.5% | 97.5% | 96% | 57.5% | 72.5% | 82.5% | 99.5% | 98.5% | 96% | 96% | 77.5% | 75% | 88.9% | 90.3% | 90.2% | 91.2% | 85% | 82.5% | 87.5% | pest or weed control at 560 g/ha ([4]; 336 h, 14 DAA): 94.5%; pest or weed control at 280 g/ha ([4]; 504 h, 21 DAA): 99%; pest or weed control at 560 g/ha ([4]; 504 h, 21 DAA): 95%; TGA Data (rate of weight loss, volatility) [5]: 0.0112 µg/min; pest or weed control at 280 g/ha ([6]; 168 h, 7 DAA): 77.5%; pest or weed control at 560 g/ha ([6]; 168 h, 7 DAA): 55%; pest or weed control at 280 g/ha ([6]; 336 h, 14 DAA): 90%; pest or weed control at 560 g/ha ([6]; 336 h, 14 DAA): 67.5%; pest or weed control at 280 g/ha ([6]; 504 h, 21 DAA): 98.5%; pest or weed control at 560 g/ha ([6]; 504 h, 21 DAA): 80%; pest or weed control at 280 g/ha ([7]; 168 h, 7 DAA): 80%; pest or weed control at 560 g/ha ([7]; 168 h, 7 DAA): 77.5%; pest or weed control at 280 g/ha ([7]; 336 h, 14 DAA): 70%; pest or weed control at 280 g/ha ([7]; 504 h, 21 DAA): 100%; pest or weed control at 560 g/ha ([7]; 504 h, 21 DAA): 100% |
| O=C(COc1ccc(Cl)cc1Cl)Nc1ccccn1 [Compound D28] | 80% | 98% | 96% | 87.5% | 81.5% | 82.5% | 82.5% | 99.5% | 97.5% | 99.5% | 98.5% | 79% | 83.1% | 95.8% | 95.8% | 96.2% | 99% | 80% | 77.5% | 97% | pest or weed control at 560 g/ha ([1]; 504 h, 21 DAA): 100%; pest or weed control at 560 g/ha ([4]; 336 h, 14 DAA): 96.5%; pest or weed control at 280 g/ha ([4]; 504 h, 21 DAA): 100%; pest or weed control at 560 g/ha ([4]; 504 h, 21 DAA): 96.5%; TGA Data (rate of weight loss, volatility) [5]: 0.06 µg/min; pest or weed control at 280 g/ha ([6]; 168 h, 7 DAA): 77.5%; pest or weed control at 560 g/ha ([6]; 168 h, 7 DAA): 72.5%; pest or weed control at 280 g/ha ([6]; 336 h, 14 DAA): 96.5%; pest or weed control at 560 g/ha ([6]; 336 h, 14 DAA): 97.5%; pest or weed control at 280 g/ha ([6]; 504 h, 21 DAA): 100%; pest or weed control at 560 g/ha ([6]; 504 h, 21 DAA): 100%; pest or weed control at 280 g/ha ([7]; 168 h, 7 DAA): 75%; pest or weed control at 560 g/ha ([7]; 168 h, 7 DAA): 85%; pest or weed control at 280 g/ha ([7]; 336 h, 14 DAA): 90%; pest or weed control at 560 g/ha ([7]; 336 h, 14 DAA): 100%; pest or weed control at 280 g/ha ([7]; 504 h, 21 DAA): 100%; pest or weed control at 560 g/ha ([7]; 504 h, 21 DAA): 100% |
| C=CCONC(=O)COc1ccc(Cl)cc1Cl [Compound D33] | 92.5% | 92% | 92.5% | 92.5% | 95% | 82.5% | 77.5% | 99.5% | 100% | 99.5% | 97.5% | 85.7% | 77.7% | 96.9% | 94.9% | 98.2% | 97.8% | 82.5% | 46.5% | 98% | pest or weed control at 560 g/ha ([1]; 504 h, 21 DAA): 92.5%; pest or weed control at 560 g/ha ([4]; 336 h, 14 DAA): 92.5%; pest or weed control at 280 g/ha ([4]; 504 h, 21 DAA): 96.5%; pest or weed control at 560 g/ha ([4]; 504 h, 21 DAA): 99%; TGA Data (rate of weight loss, volatility) [5]: 0.34 µg/min; pest or weed control at 280 g/ha ([6]; 168 h, 7 DAA): 85%; pest or weed control at 560 g/ha ([6]; 168 h, 7 DAA): 92.5%; pest or weed control at 280 g/ha ([6]; 336 h, 14 DAA): 98.5%; pest or weed control at 560 g/ha ([6]; 336 h, 14 DAA): 99.5%; pest or weed control at 280 g/ha ([6]; 504 h, 21 DAA): 100%; pest or weed control at 560 g/ha ([6]; 504 h, 21 DAA): 100%; pest or weed control at 280 g/ha ([7]; 168 h, 7 DAA): 86%; pest or weed control at 560 g/ha ([7]; 168 h, 7 DAA): 80%; pest or weed control at 280 g/ha ([7]; 336 h, 14 DAA): 96%; pest or weed control at 560 g/ha ([7]; 336 h, 14 DAA): 90%; pest or weed control at 280 g/ha ([7]; 504 h, 21 DAA): 100%; pest or weed control at 560 g/ha ([7]; 504 h, 21 DAA): 100% |
